Patent US7494998B2, “Benzisoxazole piperazine compounds and methods of use thereof” (Hypnion, Inc., priority 2005, dated 2009)

Legend:
[1] = system: male Wistar rats; assay: Sleep-wakefulness monitoring (EEG/EMG, SCORE-2004) in rats after oral treatment at CT-18; format: in vivo, rat; conditions: for MAXIMUM NREM SLEEP CUMULATION 10 mg/kg / LONGEST UNINTERRUPTED SLEEP BOUT 10 mg/kg: 10 mg/kg oral at CT-18; for MAXIMUM NREM SLEEP CUMULATION 30 mg/kg / LONGEST UNINTERRUPTED SLEEP BOUT 30 mg/kg: 30 mg/kg oral at CT-18; for MAXIMUM NREM SLEEP CUMULATION 3 mg/kg / LONGEST UNINTERRUPTED SLEEP BOUT 3 mg/kg: 3 mg/kg oral at CT-18
Protocol: Sleep-wakefulness, locomotor activity and body temperature are monitored in male Wistar rats treated with a test compound (i.e., benzisoxazole analog) initially at a concentration of 10 mg/kg. Higher and lower doses are assayed for select compounds (e.g., as high as 45 mg/kg, and as low as necessary to establish a no-effect dose). Treatments are administered at CT-18, the peak of the activity dominated period (6 hours after lights-off), and produced soporific (sleep-inducing) effects characterized by increased non-REM sleep time, increased sleep continuity, but without evidence of REM sleep inhibition or rebound insomnia.
Sleep-wakefulness, locomotor activity and body temperature were monitored in vivo with various compounds of the invention. Adult, male Wistar rats (250 g at time of surgery, Charles River Laboratories, Wilmington Mass.) were anesthetized (2% isoflourane in medical grade oxygen) and surgically prepared with a cranial implant to permit chronic electro-encephalogram (EEG) and electromyogram (EMG) recording. Body temperature and locomotor activity were monitored via a miniature transmitter (Mini-Mitter, Bend, Oreg.) surgically placed in the abdomen. The cranial implant consisted of stainless steel screws (two frontal [+3.2 AP from bregma, ±2.0 ML] and two occipital [−6.9 AP, ±5.5 ML]) for EEG recording. Two Teflon®-coated stainless steel wires were positioned under the nuchal trapezoid muscles for EMG recording. All leads were soldered to a miniature connector prior to surgery, and gas sterilized in ethylene oxide. The implant assembly was affixed to the skull with dental acrylic. A minimum of three weeks was allowed for surgical recovery.
Each rat was permanently housed in its own individual recording cage located within separate, ventilated compartments of custom-designed stainless steel cabinets. Each cage was enhanced with a filter-top riser and low-torque swivel-commutator. Food and water were available ad libitum. A 24-hr light-dark cycle (12 hours light, 12 hours dark) was maintained throughout the study. Animals were undisturbed for at least 48 hours before and after treatments.
Sleep and wakefulness were determined using “SCORE-2004™” (Hypnion, Worcester, Mass.)—an internet-based sleep-wake and physiological monitoring system. The system monitored amplified EEG (bandpass 1-30 Hz), integrated EMG (bandpass 10-100 Hz), body temperature and non-specific locomotor activity (LMA) via telemetry, and drinking activity, continuously and simultaneously. Arousal states were classified on-line as non-REM (NREM) sleep, REM sleep, wake, or theta-dominated wake every 10 seconds. Total drinking and locomotor activity counts, and body temperature were quantitiated and recorded each minute, using EEG feature extraction and pattern-matching algorithms. […] The classification algorithm used individually-taught EEG-arousal-state templates, plus EMG criteria to differentiate REM sleep from theta-dominated wakefulness, plus behavior-dependent contextual rules (e.g., if the animal was drinking, it is awake). Drinking and locomotor activity intensity (LMA) were recorded every 10 seconds, while body temperature was recorded each minute. Locomotor activity was detected by a telemetry receiver (Mini-Mitter) beneath the cage. Telemetry measures (LMA and body temperature) were not part of the scoring algorithm; thus, sleep-scoring and telemetry data were independent measures.
Compounds were administered at CT-18, the peak of the activity-dominated period, sufficient time was allowed to view the time course of the treatment effect before lights-on (6 hours post-treatment). Compounds were suspended in sterile 0.25% or 0.5% methylcellulose (1-2 ml/kg). Treatments were administered orally as a bolus.
A parallel group study design was employed. […]

[2] = target: T1, human recombinant M1 expressed in CHO cells (Homo sapiens, UniProt P11229); conditions: reference compounds of the M1 assay; read-out: Ki (M1 binding assay, reference compounds); cited from earlier work
T1 construct: expressed in transfected cells; host or cells: CHO cells
T1 sequence (P11229 1-460): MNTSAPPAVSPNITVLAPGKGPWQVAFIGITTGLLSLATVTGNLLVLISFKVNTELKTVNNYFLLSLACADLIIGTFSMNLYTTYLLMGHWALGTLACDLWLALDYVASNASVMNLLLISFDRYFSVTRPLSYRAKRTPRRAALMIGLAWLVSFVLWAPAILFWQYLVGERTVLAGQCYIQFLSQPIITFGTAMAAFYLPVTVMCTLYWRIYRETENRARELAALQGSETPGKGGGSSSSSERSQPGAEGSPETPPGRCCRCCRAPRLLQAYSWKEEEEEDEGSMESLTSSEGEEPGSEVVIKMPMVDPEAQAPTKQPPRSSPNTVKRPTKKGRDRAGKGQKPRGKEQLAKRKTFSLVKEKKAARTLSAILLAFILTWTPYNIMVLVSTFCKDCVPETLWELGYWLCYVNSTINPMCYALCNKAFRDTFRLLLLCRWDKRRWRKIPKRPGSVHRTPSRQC

[3] = cumulative nonREM sleep defined in minutes, in min
[4] = sleep bout length defined in minutes

SMILES	MAXIMUM NREM SLEEP CUMULATION 10 mg/kg [1, 3]	LONGEST UNINTERRUPTED SLEEP BOUT 10 mg/kg [1, 4]	MAXIMUM NREM SLEEP CUMULATION 30 mg/kg [1, 3]	LONGEST UNINTERRUPTED SLEEP BOUT 30 mg/kg [1, 4]	MAXIMUM NREM SLEEP CUMULATION 3 mg/kg [1, 3]	LONGEST UNINTERRUPTED SLEEP BOUT 3 mg/kg [1, 4]	Ki [2] [nM]	MAXIMUM NREM SLEEP CUMULATION 1 mg/kg ([1]; 1 mg/kg oral at CT-18, cumulative nonREM sleep defined in minutes, in min)	LONGEST UNINTERRUPTED SLEEP BOUT 1 mg/kg ([1]; 1 mg/kg oral at CT-18, sleep bout length defined in minutes)
CC(C)(CN1CCN(c2noc3ccccc23)CC1)C(=O)NS(C)(=O)=O [Compound 3]	25	5.2	27	12.3	–	–	–	–	–
Cc1ccc2onc(N3CCN(CC(C)(C)C(=O)O)CC3)c2c1 [Compound 8]	29	8.6	37	14.3	15	4.8	–	–	–
C[N+]1(C)CCC(OC(=O)C(c2ccccc2)c2ccccc2)CC1 [4-DAMP methiodide]	–	–	–	–	–	–	0.27	–	–
Cc1ccc2onc(N3CCN(CCC(=O)O)CC3)c2c1 [Compound 12]	16	7.3	–	–	–	–	–	–	–
Cc1ccc2onc(N3CCN(CCCC(=O)O)CC3)c2c1 [Compound 13]	7	−5.6	–	–	–	–	–	–	–
CC(C)(CN1CCN(c2noc3ccc(F)cc23)CC1)C(=O)O [Compound 6]	18	9.8	26	13.5	–	–	–	–	–
O=C(O)C1(CN2CCN(c3noc4ccccc34)CC2)CC1 [Compound 5]	37	5.1	45	7.2	40	3.0	–	–	–
O=C(O)CCCN1CCN(c2noc3ccccc23)CC1 [Compound 10]	22	10.7	24	9.9	–	–	–	–	–
CC(C)(CN1CCN(c2noc3ccccc23)CC1)C(=O)O [Compound 1]	26	14.4	50	16.2	16	9.3	–	20	6.0
COc1ccc2onc(N3CCN(CC(C)(C)C(=O)O)CC3)c2c1 [Compound 7]	6	−2.5	–	–	–	–	–	–	–
O=C(O)CCN1CCN(c2noc3ccccc23)CC1 [Compound 4]	27	9.9	–	–	–	–	–	–	–
Cc1ccc2c(N3CCN(CC(C)(C)C(=O)O)CC3)noc2c1 [Compound 9]	29	12.9	–	–	24	13.6	–	–	–
